This is an account of results in patent publication US12435087B2, “Modulators of DCN-1 and methods of use thereof” (Cellarity, Inc., priority 2023, dated 2025).

Read-outs that look alike come from different tables or passages of the source.

The experiment addresses DCN1 (DCUND1) protein PONY domain (Homo sapiens (Human), UniProt Q96GG9). The experiment in a line: TR-FRET assay (binding to DCN-1, displacement of FAM-labeled probe). In outline:
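Compounds read at 1, 5 and 24 h, 0.1% final DMSO, by TR-FRET between terbium-streptavidin on biotinylated DCN1 PONY domain (E. coli) and a FAM-tagged non-covalent inhibitor probe. Two setups used, 5 nM protein with 20 nM labelled probe, or 0.31 nM protein with 100 nM labelled plus 800 nM unlabelled probe; buffer had TritonX and 200 mM NaCl. % activity relative to high (with probe) and low (without probe) controls.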
(In TR-FRET formats the signal depends on donor and acceptor labels being close together.)

Where [1] appears, read: 24 hr after treatment with compound, read-out: TR FRET IC50 24 hr.
Where [2] appears, read: TR FRET IC50 1 hr (nM), 1 hr after treatment with compound.
Setting [3] is: read-out: TR FRET IC50 1 hr, 1 hr after treatment with compound.

Sequence of DCN1 (DCUND1) protein PONY domain (Q96GG9 60-248): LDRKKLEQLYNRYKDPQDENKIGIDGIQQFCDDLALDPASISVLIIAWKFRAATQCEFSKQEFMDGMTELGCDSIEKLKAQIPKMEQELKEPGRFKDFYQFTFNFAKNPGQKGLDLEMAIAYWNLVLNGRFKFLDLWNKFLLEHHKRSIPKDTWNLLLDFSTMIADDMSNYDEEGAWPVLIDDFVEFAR

Usually IC50 stands for the concentration that inhibits the measured activity by half. Consider `CCN1C(=O)[C@@H](NC(=O)c2cccc(C(F)(F)F)c2)[C@H](c2cccc(CN(C)C#N)c2)c2c(C)nn(-c3ccccc3)c21` (racemic) [Compound I-40], for which the IC50 lay in the range of 1000 to 3000 nM under setting [1] and 1000 to 3000 nM under setting [2].
For `CCN1C(=O)[C@@H](NC(=O)c2cccc(C(F)(F)F)c2)[C@@H](c2cncc(NC(=O)/C=C/CN(C)C)c2)c2cnn(-c3ccccc3)c21` [Compound I-329], the IC50 by setting is: under setting [1], 1000 to 3000 nM; under setting [2], 1000 to 3000 nM.
For `CCN1C(=O)[C@H](NC(=O)c2cccc(C(F)(F)F)c2)[C@@H](c2cccc(NC(=O)/C=C/CN(C)C)c2)c2c(CN(C)C)nn(-c3ccccc3)c21` (racemic) [Compound I-212, ˜{N}—[˜{rac}-(4˜{S},5˜{R})-3-[(dimethylamino)methyl]-7-ethyl-6-oxo-1-phenyl-4-[3-[[˜{rac}-(˜{E})-4-(dimethylamino)but-2-enoyl]amino]phenyl]-4,5-dihydropyrazolo[3,4-b]pyridin-5-yl]-3-(trifluoromethyl)benzamide], the IC50 under setting [1] was at most 200 nM and the IC50 under setting [2] lay in the range of 200 to 1000 nM.
For `CCN1C(=O)[C@@H](NC(=O)c2cccc(C(F)(F)F)c2)[C@H](c2cccc(CNC(=O)C3=CCCN(C)C3)c2)c2cnn(-c3ccccc3)c21` [Compound I-33], the IC50 reads like this: under setting [1], 1000 to 3000 nM; under setting [2], 1000 to 3000 nM.
For the compound `CCN1C(=O)[C@@H](NC(=O)c2cccc(C(F)(F)F)c2)[C@H](c2cccc3c2CN(C#N)C3)c2cnn(-c3ccccc3)c21` (racemic) [Compound I-282, rac-N-((4R,5S)-4-(2-cyanoisoindolin-4-yl)-7-ethyl-6-oxo-1-phenyl-4,5,6,7-tetrahydro-1H-pyrazolo[3,4-b]pyridin-5-yl)-3-(trifluoromethyl)benzamide], the IC50 under setting [1] is 1000 to 3000 nM and the half-inhibitory concentration (IC50) under setting [2] lay in the range of 1000 to 3000 nM.
In the case of `CCN1C(=O)[C@@H](NC(=O)c2cccc(C(F)(F)F)c2)[C@H](c2ccccc2CNC(=O)/C=C/C(=O)OC)c2cnn(-c3ccccc3)c21` (racemic) [Compound I-67], the concentration for half-maximal inhibition (IC50) was in the range of 1000 to 3000 nM under setting [1] and 1000 to 3000 nM under setting [2].
In the case of `CCN1C(=O)[C@H](NC(=O)c2cccc(C(F)(F)F)c2)[C@@H](c2ccccc2NC(=O)C23CC2C3)c2cnn(-c3ccccc3)c21` (mixture of isomers) [Compound I-45, {N}-[2-[˜{rac}-(4˜{S},5˜{R})-7-ethyl-6-oxo-1-phenyl-5-[[3-(trifluoromethyl)benzoyl]amino]-4,5-dihydropyrazolo[3,4-b]pyridin-4-yl]phenyl]bicyclo[1.1.0]butane-1-carboxamide], the IC50 by setting is: under setting [1], 1000 to 3000 nM; under setting [2], 1000 to 3000 nM.
Turning to `C=CC(=O)NCc1ccccc1[C@@H]1c2cnn(-c3ccccc3)c2N(CC)C(=O)[C@H]1NC(=O)c1cccc(C(F)(F)F)c1` (racemic) [Compound I-113], the IC50 runs as follows: under setting [1], 1000 to 3000 nM; under setting [2], 1000 to 3000 nM.
Take `C=C(CN1CCOCC1)C(=O)NCc1cccc([C@@H]2c3cnn(-c4ccccc4)c3N(CC)C(=O)[C@H]2NC(=O)c2ccn(C)n2)c1` [Compound I-338]: the IC50 by setting is: under setting [1], at most 200 nM; under setting [2], 1000 to 3000 nM.
For `C=C(CN1CCC12COC2)C(=O)N(C)Cc1cccc([C@@H]2c3cnn(-c4ccccc4)c3N(CC)C(=O)[C@H]2NC(=O)c2ccn(C3CC3)n2)c1` [Compound I-373] the same measures were at most 200 nM and 200 to 1000 nM.
Consider `CCN1C(=O)[C@H](NC(=O)c2cccc(C(F)(F)F)c2)[C@@H](c2cccc(N(C)C(=O)/C=C/C(F)(F)F)c2)c2cnn(-c3ccccc3)c21` (racemic) [Compound I-99], for which the half-maximal inhibitory concentration (IC50) fell in the range of 1000 to 3000 nM under setting [1] and 1000 to 3000 nM under setting [2].
As for `C=C(C(=O)NCc1cccc([C@@H]2c3cnn(-c4ccccc4)c3N(CC)C(=O)[C@H]2NC(=O)c2csc(C)n2)c1)C(C)N(C)C1COC1` (stereo partly shown) [Compound I-278], the IC50 is, setting by setting: under setting [1], at most 200 nM; under setting [3], at most 200 nM.
Take `C/C=C(\CN1CCOCC1)C(=O)NCc1cccc([C@H]2c3cnn(-c4ccccc4)c3N(CC)C(=O)[C@@H]2NC(=O)c2cccc(C(F)(F)F)c2)c1` [Compound I-115]: the 50% inhibitory concentration (IC50) by setting is: under setting [1], 1000 to 3000 nM; under setting [2], 1000 to 3000 nM.
For the compound `C=C(C(=O)NCc1cccc([C@@H]2c3cnn(-c4ccccc4)c3N(CC)C(=O)[C@H]2NC(=O)c2cccc(C(F)(F)F)c2)c1)C(C)N1CCN(C2COC2)CC1` (stereo partly shown) [Compound I-317], the 50% inhibitory concentration (IC50) is, setting by setting: under setting [1], at most 200 nM; under setting [3], at most 200 nM.
`CCN1C(=O)[C@@H](NC(=O)c2cccc(C(F)(F)F)c2)[C@@H](c2cc(F)cc(NC(=O)/C=C/CN(C)C)c2)c2cnn(-c3ccccc3)c21` (racemic) [Compound I-85]: the 50% inhibitory concentration (IC50) reads like this: under setting [1], 1000 to 3000 nM; under setting [2], 1000 to 3000 nM.
For `C/C=C(\CN1CCC12COC2)C(=O)Nc1cccc([C@@H]2c3cnn(-c4ccccc4)c3N(CC)C(=O)[C@H]2NC(=O)c2nccc(C(F)(F)F)n2)c1` [Compound I-251], the half-inhibitory concentration (IC50) is at most 200 nM under setting [1] and 1000 to 3000 nM under setting [2].
`CCN1C(=O)[C@@H](NC(=O)c2cccc(C(F)(F)F)c2)[C@H](c2cccc(CN(C)C/C=C/C(=O)OC(C)(C)C)c2)c2cnn(-c3ccccc3)c21` [Compound I-238, tert-butyl (E)-4-((3-((4R,5S)-7-ethyl-6-oxo-1-phenyl-5-(3-(trifluoromethyl)benzamido)-4,5,6,7-tetrahydro-1H-pyrazolo[3,4-b]pyridin-4-yl)benzyl)(methyl)amino)but-2-enoate]: the concentration for half-maximal inhibition (IC50) reads like this: under setting [1], 1000 to 3000 nM; under setting [2], 1000 to 3000 nM.
Regarding `C=C(CN1CCC(F)(F)C1)C(=O)NCc1cccc([C@H]2c3cnn(-c4ccccc4)c3N(CC)C(=O)[C@@H]2NC(=O)c2cccc(C(F)(F)F)c2)c1` [Compound I-102], the IC50 runs as follows: under setting [1], 1000 to 3000 nM; under setting [2], 1000 to 3000 nM.
Regarding `C=C(CN1CC2CC1CO2)C(=O)NCc1cccc([C@@H]2c3c(C)nn(-c4ccccc4)c3N(CC)C(=O)[C@H]2NC(=O)c2cccc(C(F)(F)F)c2)c1` (stereo partly shown) [Compound I-236], the IC50 reads like this: under setting [1], at most 200 nM; under setting [3], at most 200 nM.
As to `CCN1C(=O)[C@H](NC(=O)c2cccc(C(F)(F)F)c2)[C@@H](c2ccccc2NC(=O)CCl)c2c(C)nn(-c3ccccc3)c21` [Compound I-110, N-((4S,5R)-4-(2-(2-chloroacetamido)phenyl)-7-ethyl-3-methyl-6-oxo-1-phenyl-4,5,6,7-tetrahydro-1H-pyrazolo[3,4-b]pyridin-5-yl)-3-(trifluoromethyl)benzamide], the IC50 is, setting by setting: under setting [1], 1000 to 3000 nM; under setting [2], 1000 to 3000 nM.
`CCN1C(=O)[C@H](NC(=O)c2cccc(C(F)(F)F)c2)[C@@H](c2cccc(CNC(=O)C3=C(C(=O)OC)CCC3)c2)c2cnn(-c3ccccc3)c21` [Compound I-119]: the IC50 runs as follows: under setting [1], 1000 to 3000 nM; under setting [2], 1000 to 3000 nM.
On to `C=C(C(=O)N(C)Cc1cccc([C@@H]2c3cnn(-c4ccccc4)c3N(CC)C(=O)[C@H]2NC(=O)c2ccn(C3CC3)n2)c1)C(C)N1CC2CC(C1)O2` (stereo partly shown) [Compound I-286], for which the IC50 runs as follows: under setting [1], at most 200 nM; under setting [2], 1000 to 3000 nM.
For `C=C(CC(=O)NCc1cccc([C@H]2c3cnn(-c4ccccc4)c3N(CC)C(=O)[C@@H]2NC(=O)c2cccc(C(F)(F)F)c2)c1)C(=O)OC` [Compound I-109] the same measures were 1000 to 3000 nM and 1000 to 3000 nM.
